# According to patent US3960877A, “N-monosubstituted-2,3-pyridinedicarboxamides, and related compounds” (priority 1974, dated 1976):
# Columns and labels:
# Assay type in all cases: in vivo
# Alfalfa [1] = test: Preemergence herbicidal activity, % control of plant growth
# Summary of the method: (§1)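 Seeds sown in fresh soil; soil sprayed immediately after planting, before any growth, with ~2% w/w solution of compound in acetone and/or alcohol at 16 lb/acre. Visual rating ~3 weeks after spraying versus untreated areas, as average % control of plant growth.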
# Barnyard Grass [2] = test: as above
# Summary of the method: as §1
# Cheatgrass [3] = test: as above
# Summary of the method: as §1
# Chickweed [4] = test: as above; conditions: pre-emergence, 504 h, 16 lb/acre, about 3 weeks
# Summary of the method: as §1
# Corn [5] = test: as above
# Summary of the method: as §1
# Crabgrass [6] = test: as above
# Summary of the method: as §1
# Cucumber [7] = test: as above
# Summary of the method: as §1
# Curled Dock [8] = test: as above
# Summary of the method: as §1
# Foxtail [9] = test: as above
# Summary of the method: as §1
# Johnsongrass [10] = test: as above
# Summary of the method: as §1
# Lambsquarters [11] = test: as above
# Summary of the method: as §1
# Nutgrass [12] = test: as above; conditions: pre-emergence, 504 h, 16 lb/acre, about 3 weeks
# Summary of the method: as §1
# Pigweed [13] = test: as above
# Summary of the method: as §1
# Snapbeans [14] = test: as above; conditions: pre-emergence, 504 h, 16 lb/acre, about 3 weeks
# Summary of the method: as §1
# Velvetleaf [15] = test: as above; conditions: Abutilon theophrasti, pre-emergence, 504 h, 16 lb/acre, about 3 weeks
# Summary of the method: as §1
# Wild Oats [16] = test: as above
# Summary of the method: as §1
# Yellow Rocket [17] = test: as above; conditions: pre-emergence, 504 h, 16 lb/acre, about 3 weeks
# Summary of the method: as §1
# Alfalfa [18] = test: Postemergence herbicidal activity, % control of plant growth; conditions: Medicago sativa, post-emergence, 264 h, 8 lb/acre, about 11 days
# Summary of the method: (§2)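 Soil and emerged seedlings were sprayed about 2 weeks after sowing with the compound at 8 pounds per acre, delivered from an approx. 2% w/w acetone and/or alcohol solution. Percent control of plant growth was scored visually roughly 11 days after treatment.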
# Barnyard Grass [19] = test: as above; conditions: Echinochloa crus-galli, post-emergence, 264 h, 8 lb/acre, about 11 days
# Summary of the method: as §2
# Cheatgrass [20] = test: as above; conditions: Bromus tectorum, post-emergence, 264 h, 8 lb/acre, about 11 days
# Summary of the method: as §2
# Chickweed [21] = test: as above; conditions: post-emergence, 264 h, 8 lb/acre, about 11 days
# Summary of the method: as §2
# Corn [22] = test: as above; conditions: Zea mays, post-emergence, 264 h, 8 lb/acre, about 11 days
# Summary of the method: as §2
# Crabgrass [23] = test: as above; conditions: Digitaria sanguinalis, post-emergence, 264 h, 8 lb/acre, about 11 days
# Summary of the method: as §2
# Cucumber [24] = test: as above; conditions: Cucumis sativus, post-emergence, 264 h, 8 lb/acre, about 11 days
# Summary of the method: as §2
# Curled Dock [25] = test: as above; conditions: post-emergence, 264 h, 8 lb/acre, about 11 days
# Summary of the method: as §2
# Foxtail [26] = test: as above; conditions: Setaria, post-emergence, 264 h, 8 lb/acre, about 11 days
# Summary of the method: as §2
# Johnsongrass [27] = test: as above; conditions: Sorghum halepense, post-emergence, 264 h, 8 lb/acre, about 11 days
# Summary of the method: as §2
# Lambsquarters [28] = test: as above; conditions: Chenopodium album, post-emergence, 264 h, 8 lb/acre, about 11 days
# Summary of the method: as §2
# Nutgrass [29] = test: as above; conditions: post-emergence, 264 h, 8 lb/acre, about 11 days
# Summary of the method: as §2
# Pigweed [30] = test: as above; conditions: Amaranthus retroflexus, post-emergence, 264 h, 8 lb/acre, about 11 days
# Summary of the method: as §2
# Snapbeans [31] = test: as above; conditions: post-emergence, 264 h, 8 lb/acre, about 11 days
# Summary of the method: as §2
# Velvetleaf [32] = test: as above; conditions: Abutilon theophrasti, post-emergence, 264 h, 8 lb/acre, about 11 days
# Summary of the method: as §2
# Wild Oats [33] = test: as above; conditions: Avena fatua, post-emergence, 264 h, 8 lb/acre, about 11 days
# Summary of the method: as §2
# Yellow Rocket [34] = test: as above; conditions: post-emergence, 264 h, 8 lb/acre, about 11 days
# Summary of the method: as §2
# [35] = tested on: undesirable plants of both the monocotyledonous and the dicotyledonous species; test: Herbicidal activity, general
# Source text: All of the 3-substituted compounds of the pyrido [3,2-d]pyrimidine-2,4(1H,3H)-dione and lumazine families made from intermediate amides produced by the method of this invention have an unexpectedly high order of herbicidal activity.
# (§3) In using the compound, seeds of the types of plants set forth in Table II were sown in fresh soil. In the preemergence test the soil was sprayed with a solution of the test compound immediately after the seeds were planted, and before any noticeable growth developed. The solution was about a 2 percent by weight solution of the compound in acetone and/or alcohol. The compound was applied at the rate of 16 pounds per acre of soil surface.
# (§4) Approximately 3 weeks after spray application, the herbicidal activity of the compound was determined by visual observation of the treated area in comparison with untreated control areas. These observations are reported below in Table II wherein the average activity rating is reported as the percent control of plant growth.
# In the postemergence test the soil and developing plants were sprayed approximately 2 weeks after the seeds were sown. The compound was applied at the rate of 8 pounds per acre from about a 2 percent by weight solution of the test compound in acetone and/or alcohol. The postemergence herbicidal activity was measured in the same way as the preemergence activity; i.e. visual observation approximately 11 days after spraying, and expressed as the percent control of plant growth.
# volunteer soybeans = test: Herbicidal activity at 16 pounds per acre, % control
# Source text: as §3, §4
compound,measurement,setting,value
"O=c1[nH]c2cccnc2c(=O)n1C1CCCCC1 [3-cyclohexyl-pyrido[3,2-d] pyrimidine-2,4(1H,3H)-dione]",pest or weed control at 17933.6 g/ha,"Alfalfa [1]; Medicago sativa, pre-emergence, 504 h, 16 lb/acre, about 3 weeks",100%
same,pest or weed control at 17933.6 g/ha,"Barnyard Grass [2]; Echinochloa crus-galli, pre-emergence, 504 h, barnyard grass, 16 lb/acre, about 3 weeks",100%
same,pest or weed control at 17933.6 g/ha,"Cheatgrass [3]; Bromus tectorum, pre-emergence, 504 h, 16 lb/acre, about 3 weeks",100%
same,pest or weed control at 17933.6 g/ha,Chickweed [4],100%
same,plant injury at 17933.6 g/ha,"Corn [5]; Zea mays, pre-emergence, 504 h, 16 lb/acre, about 3 weeks",90%
same,pest or weed control at 17933.6 g/ha,"Crabgrass [6]; Digitaria sanguinalis, pre-emergence, 504 h, 16 lb/acre, about 3 weeks",100%
same,pest or weed control at 17933.6 g/ha,"Cucumber [7]; Cucumis sativus, pre-emergence, 504 h, 16 lb/acre, about 3 weeks",100%
same,pest or weed control at 17933.6 g/ha,"Curled Dock [8]; pre-emergence, 504 h, 16 lb/acre, about 3 weeks",100%
same,pest or weed control at 17933.6 g/ha,"Foxtail [9]; Setaria, pre-emergence, 504 h, 16 lb/acre, about 3 weeks",100%
same,pest or weed control at 17933.6 g/ha,"Johnsongrass [10]; Sorghum halepense, pre-emergence, 504 h, 16 lb/acre, about 3 weeks",100%
same,pest or weed control at 17933.6 g/ha,"Lambsquarters [11]; Chenopodium album, pre-emergence, 504 h, 16 lb/acre, about 3 weeks",100%
same,pest or weed control at 17933.6 g/ha,Nutgrass [12],100%
same,pest or weed control at 17933.6 g/ha,"Pigweed [13]; Amaranthus retroflexus, pre-emergence, 504 h, 16 lb/acre, about 3 weeks",100%
same,pest or weed control at 17933.6 g/ha,Snapbeans [14],100%
same,pest or weed control at 17933.6 g/ha,Velvetleaf [15],100%
same,pest or weed control at 17933.6 g/ha,"Wild Oats [16]; Avena fatua, pre-emergence, 504 h, 16 lb/acre, about 3 weeks",100%
same,pest or weed control at 17933.6 g/ha,Yellow Rocket [17],100%
same,pest or weed control at 8966.8 g/ha,Alfalfa [18],30%
same,pest or weed control at 8966.8 g/ha,Barnyard Grass [19],100%
same,pest or weed control at 8966.8 g/ha,Cheatgrass [20],80%
same,pest or weed control at 8966.8 g/ha,Chickweed [21],100%
same,plant injury at 8966.8 g/ha,Corn [22],40%
same,pest or weed control at 8966.8 g/ha,Crabgrass [23],100%
same,pest or weed control at 8966.8 g/ha,Cucumber [24],100%
same,pest or weed control at 8966.8 g/ha,Curled Dock [25],100%
same,pest or weed control at 8966.8 g/ha,Foxtail [26],100%
same,pest or weed control at 8966.8 g/ha,Johnsongrass [27],100%
same,pest or weed control at 8966.8 g/ha,Lambsquarters [28],100%
same,pest or weed control at 8966.8 g/ha,Nutgrass [29],100%
same,pest or weed control at 8966.8 g/ha,Pigweed [30],100%
same,pest or weed control at 8966.8 g/ha,Snapbeans [31],80%
same,pest or weed control at 8966.8 g/ha,Velvetleaf [32],100%
same,pest or weed control at 8966.8 g/ha,Wild Oats [33],100%
same,pest or weed control at 8966.8 g/ha,Yellow Rocket [34],100%
same,effective application rate,"[35]; relative to 3-isopropyl-pyrido[3,2-d]pyrimidine-2,4(1H,3H)-dione, preemergence or postemergence","substantially the same application rates, e.g., as similar or salt solutions in water, are effective"
"CCn1c(=O)[nH]c2ncccc2c1=O [3-ethyl-pyrido[2,3-d]pyrimidine-2,4 (1H,3H)-dione]",herbicidal activity/control,Alfalfa [1]; 16 pounds per acre,no significant control
same,herbicidal activity/control,"Barnyard Grass [2]; barnyardgrass, 16 pounds per acre",no significant control
same,herbicidal activity/control,Cheatgrass [3]; 16 pounds per acre,no significant control
same,pest or weed control at 17933.6 g/ha,Chickweed [4],80%
same,herbicidal activity/control,Corn [5]; 16 pounds per acre,no significant control
same,herbicidal activity/control,Crabgrass [6]; 16 pounds per acre,no significant control
same,herbicidal activity/control,Cucumber [7]; 16 pounds per acre,no significant control
same,herbicidal activity/control,Curled Dock [8]; 16 pounds per acre,no significant control
same,herbicidal activity/control,Foxtail [9]; 16 pounds per acre,no significant control
same,herbicidal activity/control,Johnsongrass [10]; 16 pounds per acre,no significant control
same,herbicidal activity/control,Lambsquarters [11]; 16 pounds per acre,no significant control
same,pest or weed control at 17933.6 g/ha,Nutgrass [12],90%
same,herbicidal activity/control,Pigweed [13]; 16 pounds per acre,no significant control
same,pest or weed control at 17933.6 g/ha,Snapbeans [14],100%
same,pest or weed control at 17933.6 g/ha,Velvetleaf [15],80%
same,herbicidal activity/control,Wild Oats [16]; 16 pounds per acre,no significant control
same,pest or weed control at 17933.6 g/ha,Yellow Rocket [17],80%
same,percent control,volunteer soybeans,100%
same,order of herbicidal activity,[35]; in vivo,comparatively low order
